Source: paper PMC7822874, “Chemoprotective antimalarials identified through quantitative high-throughput screening of Plasmodium blood and liver stage parasites” (Scientific Reports, 2021)
Where “and” joins values, the source holds several entries; their conditions need not be identical. Equal entries are not always repeated.

Assays:
[1] = tested on: T1, Plasmodium falciparum Dd2-attB-ScDHODH (transgenic line expressing yeast DHODH), asexual blood stages; assay: organism not typed; set-up: replicate k of 3 (each line is one of three independent assays; the three lines of one compound and parasite line follow each other)
T1 construct: Dd2-attB-ScDHODH, the transgenic line that expresses yeast DHODH
Description: The overexpression of the fumarate-dependent yeast DHODH confers resistance to compounds that inhibit the parasite mETC, or the parasite DHODH enzyme that depends on ubiquinone provided by the parasite mETC. Assays were performed in three independent assays on a subset of compounds, and differences between the Dd2-attB parental line and the ScDHODH transgenic line were analyzed using two-sided Student’s t-tests.

[2] = tested on: T2, Plasmodium falciparum Dd2-attB (parental line), asexual blood stages; assay: microbe, parasite or virus in culture; set-up: replicate k of 3 (each line is one of three independent assays; the three lines of one compound and parasite line follow each other); details: n = 1; for Individual replicates / Log AC50 (M): 72 h; for AC50: Plasmodium falciparum, DD2, 72 h, read-out: Individual replicates / Log AC50 (converted)
T2 construct: Dd2-attB, the isogenic parental line
Method in brief: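 Three independent runs, compound subset only; parental vs ScDHODH line compared by two-sided Student's t-test.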

[3] = 72 h; n = 1; read-out: Individual replicates / Log AC50 (converted)

Compound	Individual replicates / Log AC50 (M) ([1]; 72 h, n = 1)	AC50 [1, 3] [µM]	Individual replicates / Log AC50 (M) [2]	AC50 [2] [µM]	Individual replicates / Log AC50 (M) ([1]; 72 h; n = 1)
O=C(Nc1ccccn1)c1ccc(-c2cc(O)c3ncccc3c2)cc1 [NCGC00247739-01]	-4.7986 Log AC50 (M)	8.94	-4.9986 Log AC50 (M) and -4.8986 Log AC50 (M)	7.97	
CN1CCN(CCCNC(=O)c2cccc(-c3cc(O)c4ncccc4c3)c2)CC1 [NCGC00247740-01]	-4.7486 Log AC50 (M) and -4.7986 Log AC50 (M)	17.8	-4.7986 Log AC50 (M) and -4.7486 Log AC50 (M)	15.9	
O=C(NCCCN1CCCC1)c1cccc(-c2cc(O)c3ncccc3c2)c1 [NCGC00247742-01]		17.8	-4.7986 Log AC50 (M)	17.8	-4.7486 Log AC50 (M)
CC(c1ccccc1)N1CCN(c2cnc3c(O)ccc(C(=O)O)c3c2)CC1 (stereo not shown) [NCGC00247745-01]	-4.7986 Log AC50 (M) and -4.7486 Log AC50 (M)	17.8	-4.8486 Log AC50 (M) and -4.7486 Log AC50 (M)	15.9	
CN(C)CCCCCNC(=O)c1cccc(-c2cc(O)c3ncccc3c2)c1 [NCGC00247747-01]		14.2	-4.8486 Log AC50 (M)	14.2	
Oc1cc(-c2ccc(CN3CCOCC3)cc2)cc2cccnc12 [NCGC00247750-01]	-5.2986 Log AC50 (M) and -5.1486 Log AC50 (M)	5.03	-5.2986 Log AC50 (M) and -5.3986 Log AC50 (M)	5.03	
O=C(O)c1ccc(O)c2ncc(N3CCCN(CCCc4ccncc4)CC3)cc12 [NCGC00247752-01]	-4.7986 Log AC50 (M) and -4.7486 Log AC50 (M)	17.8	-4.7486 Log AC50 (M)	12.6	
CN(C)[S+](=O)([O-])c1cccc(-c2cc(O)c3ncccc3c2)c1 [NCGC00247754-01]	-5.2986 Log AC50 (M) and -5.1486 Log AC50 (M)	5.03	-5.2986 Log AC50 (M)	5.64	
Oc1cc(-c2ccc(CN3CCOCC3)c(F)c2)cc2cccnc12 [NCGC00247756-01]	-5.2986 Log AC50 (M) and -5.2486 Log AC50 (M)	5.03	-5.2986 Log AC50 (M)	5.03	
O=C(NCCCN1CCCCCC1)c1cccc(-c2cc(O)c3ncccc3c2)c1 [NCGC00247760-01]		15.9	-4.8986 Log AC50 (M) and -4.7486 Log AC50 (M)	20	
Cc1ccc(CN2CCN(c3cnc4c(O)ccc(C(=O)O)c4c3)CC2)cc1 [NCGC00249379-01]	-4.8486 Log AC50 (M) and -4.7486 Log AC50 (M)	15.9	-4.7986 Log AC50 (M)	17.8	
CC1CN(c2cnc3c(O)ccc(C(=O)O)c3c2)CCN1Cc1ccccc1 (stereo not shown) [NCGC00249383-01]	-4.7986 Log AC50 (M)	17.8	-4.7486 Log AC50 (M) and -4.8486 Log AC50 (M)	17.8	
O=C(NCCC12CCCN1CCC2)c1cccc(-c2cc(O)c3ncccc3c2)c1 [NCGC00249386-01]	-4.6986 Log AC50 (M)	17.8	-4.7986 Log AC50 (M)	17.8	
O=C(NCCCCCN1CCOCC1)c1cccc(-c2cc(O)c3ncccc3c2)c1 [NCGC00249387-01]	-4.6986 Log AC50 (M) and -5.0486 Log AC50 (M) and -4.7986 Log AC50 (M)		-4.9986 Log AC50 (M)	7.1	
COC(=O)c1ccc(O)c2ncc(N3CCOCC3)cc12 [NCGC00262492-01]	-5.2986 Log AC50 (M)	5.64	-5.3486 Log AC50 (M) and -5.3986 Log AC50 (M)	5.64	
CCOC(=O)CCNc1cc(N2CCc3ccccc3CC2)nc(-c2ccccn2)n1 [NCGC00344626-04]	-5.2986 Log AC50 (M) and -4.9486 Log AC50 (M)		-5.2986 Log AC50 (M) and -5.2486 Log AC50 (M) and -5.0486 Log AC50 (M)		
CCOC(=O)CCNc1cc(N2CCc3ccccc3CC2)nc(-c2cccnc2)n1 [NCGC00351550-01]	-4.7986 Log AC50 (M)		-4.8986 Log AC50 (M)	14.2	
CCOC(=O)CCNc1cc(N2CCc3ccccc3CC2)nc(-c2cccnc2)n1 [NCGC00351550-02]	-5.0986 Log AC50 (M) and -4.7986 Log AC50 (M)		-4.8486 Log AC50 (M) (2×) and -4.7486 Log AC50 (M)		
